# Paper PMC4503722, “Novel Phenotypic Outcomes Identified for a Public Collection of Approved Drugs from a Publicly Accessible Panel of Assays” (PLoS ONE, 2015)
# Where two headings read alike, the source gives them in different places.
# Legend:
# Test in all cases: cells
# HeLa cells = assay type: cell-based; conditions: HeLa, HeLa, read-out: CellCycle G2/M
# HCT116 = assay type: cell-based; conditions: read-out: Basal_Viability ATP HCT116
# NCI-H716 cells = assay type: cell-based, Human; conditions: for EC50: read-out: GLP 1 Secretion
# SW480 = assay type: cell-based; conditions: read-out: Basal_Viability ATP SW480
# DLD-1 = assay type: cell-based; conditions: read-out: Basal_Viability ATP DLD-1
# [1] = test system: nuclear β-catenin in C2C12 cells; assay type: cell-based; conditions: read-out: Wnt Pathway
# INS-1E cells = assay type: cell-based, rat; conditions: read-out: Insulin Secretion
# [2] = test system: endothelial tube formation in co-cultures of ECFCs and ADSCs treated with VEGF; assay type: cell-based, human; conditions: read-out: Anti-Angiogenesis
# [3] = test system: HCT116 cells treated with a GSK3β inhibitor; assay type: cell-based; conditions: read-out: GSK3b inh pretreated_Viability ATP HCT116
# [4] = Homo sapiens, HCT-116, basal, HCT116
# [5] = Homo sapiens, SW480, basal, SW480
# [6] = Homo sapiens, DLD-1, basal, DLD-1
# [7] = Mus musculus, C2C12, S2 Table, module primary assay, 20 / 20.1 codes per legend
# [8] = Homo sapiens, HCT-116, HCT116 pretreated with GSK3b inhibitor
# [9] = Homo sapiens, IC50 / EC50, NCI-H716
# [10] = Mus musculus, C2C12, IC50 / EC50, C2C12 beta-catenin translocation
# [11] = Rattus norvegicus, IC50 / EC50, INS-1E
# [12] = Homo sapiens, HCT-116, GSK3b inhibitor pretreated
# [13] = S2 Table, module primary assay, 20 / 20.1 codes per legend
# [14] = IC50 / EC50, C2C12 beta-catenin translocation
compound,measurement,setting,value
CCCCCCCCCCCCCCCC[N+](C)(C)CCN(Cc1ccc(OC)cc1)c1ncccn1 [Tonzonium bromide],EC50,"HeLa cells; Homo sapiens, S2 Table, 20 = no response at highest concentration",> 10 µM
same,IC50,HCT116; [4],3.41 µM
same,EC50,"NCI-H716 cells; Homo sapiens, NCI-H716",17.8 µM
same,IC50,SW480; [5],5.08 µM
same,IC50,DLD-1; [6],4.05 µM
same,EC50,[1]; [7],> 10 µM
same,EC50,"INS-1E cells; Rattus norvegicus, INS-1E",> 10 µM
same,IC50,[2]; Homo sapiens,3.07 µM
same,IC50,[3]; [8],5.31 µM
"O=C1Nc2ccc(Cl)cc2[C@@](C#CC2CC2)(C(F)(F)F)O1 [efavirenz, reference compound]",IC50,"HCT116; Homo sapiens, HCT-116, basal",6.17 µM
same,activity in the GLP-1 secretion assay (in words),NCI-H716 cells,exhibited activity in the GLP-1 secretion assay
same,EC50,NCI-H716 cells; [9],2.48 µM
same,IC50,"SW480; Homo sapiens, SW480, basal",4.61 µM
same,IC50,"DLD-1; Homo sapiens, DLD-1, basal",> 20 µM
same,EC50,[1]; [10],> 10 µM
same,EC50,INS-1E cells; [11],3.87 µM
same,IC50,"[2]; Homo sapiens, IC50 / EC50, endothelial tube area, ADSC/ECFC co-culture",> 10 µM
same,IC50,[3]; [12],7.3 µM
Nc1cc(C(F)(F)F)ccc1S,IC50,"HCT116; basal, HCT116",> 20 µM
same,EC50,NCI-H716 cells,1.16 µM
same,IC50,"SW480; basal, SW480",> 20 µM
same,IC50,"DLD-1; basal, DLD-1",> 20 µM
same,EC50,[1]; [13],> 10 µM
same,EC50,INS-1E cells; [13],> 10 µM
same,IC50,[2],> 10 µM
same,IC50,[3]; HCT116 pretreated with GSK3b inhibitor,> 20 µM
C/C(=C(/CCOC(=O)C(C)C)SS/C(CCOC(=O)C(C)C)=C(\C)N(C=O)Cc1cnc(C)nc1N)N(C=O)Cc1cnc(C)nc1N [sulbutiamine],IC50,"HCT116; Homo sapiens, HCT-116, basal",> 20 µM
same,EC50,NCI-H716 cells; [9],2.39 µM
same,IC50,"SW480; Homo sapiens, SW480, basal",> 20 µM
same,IC50,"DLD-1; Homo sapiens, DLD-1, basal",> 20 µM
same,EC50,[1]; [10],> 10 µM
same,EC50,INS-1E cells; [11],> 20 µM
same,IC50,[3]; [12],> 20 µM
Cc1cc(CC(C)CC(C)(C)C)n(O)c(=O)c1 (centres unmarked) [Piroctonum],EC50,HeLa cells; IC50 / EC50,> 10 µM
same,IC50,HCT116; basal,0.772 µM
same,EC50,"NCI-H716 cells; IC50 / EC50, NCI-H716",> 10 µM
same,IC50,SW480; basal,0.581 µM
same,IC50,DLD-1; basal,1.08 µM
same,EC50,[1]; [14],0.591 µM
same,EC50,"INS-1E cells; IC50 / EC50, INS-1E",> 10 µM
same,IC50,[3]; GSK3b inhibitor pretreated,0.506 µM
Janssen brand of muromonab-cd3,EC50,HeLa cells; IC50 / EC50,> 10 µM
same,IC50,HCT116; basal,2.64 µM
same,EC50,"NCI-H716 cells; IC50 / EC50, NCI-H716",0.79 µM
same,IC50,SW480; basal,3.22 µM
same,IC50,DLD-1; basal,2.81 µM
same,EC50,[1]; [14],> 10 µM
same,EC50,"INS-1E cells; IC50 / EC50, INS-1E",> 10 µM
same,IC50,[3]; GSK3b inhibitor pretreated,3.66 µM
Cc1c(C)n(CCN(C)C)c2ccc(C(=O)OCCN(C)C)cc12 [Amindocate],IC50,"HCT116; Homo sapiens, HCT-116, basal",> 20 µM
same,EC50,NCI-H716 cells; [9],1.2 µM
same,IC50,"SW480; Homo sapiens, SW480, basal",10.2 µM
same,IC50,"DLD-1; Homo sapiens, DLD-1, basal",> 20 µM
same,EC50,[1]; [10],> 10 µM
same,EC50,INS-1E cells; [11],> 10 µM
same,IC50,[3]; [12],> 20 µM
CC(C)(C)CC(C)(C)c1ccc(O)c(Cc2ccc(Cl)cc2Cl)c1 [Clofoctol],IC50,HCT116; [4],5.31 µM
same,EC50,"NCI-H716 cells; Homo sapiens, NCI-H716",0.544 µM
same,IC50,SW480; [5],3.97 µM
same,IC50,DLD-1; [6],2.18 µM
same,EC50,[1]; [7],> 10 µM
same,EC50,"INS-1E cells; Rattus norvegicus, INS-1E",> 20 µM
same,IC50,[3]; [8],4.73 µM
COc1ccc(OC(=O)N(CC(=O)O)Cc2ccc(OCCc3nc(-c4ccccc4)oc3C)cc2)cc1,IC50,HCT116,7.65 µM
same,EC50,NCI-H716 cells,1.54 µM
same,IC50,SW480,6.23 µM
same,IC50,DLD-1,9.55 µM
same,EC50,[1],> 10 µM
same,EC50,INS-1E cells,> 10 µM
same,IC50,[2],> 10 µM
same,IC50,[3],6.13 µM
